From patent publication US8415469B2, “Compounds and methods for kinase modulation, and indications therefor” (Plexxikon Inc., priority 2005, dated 2013)

Key:
Type in all cases: biochemical
FGFR1 = biological target: T1, FGFR1 (Homo sapiens, UniProt P11362, C488A/C584S); test: AlphaScreen kinase assay, FGFR1; settings: read-out: IC50, activity toward kinase FGFR
T1 construct: P1351.pET N6 BI-PTP FGFR A458-E765-X C488A, C584S; made in house; host or cells: E. coli (PTP1B co-expressed)

Kdr = biological target: T2, Kdr (Homo sapiens, UniProt P35968); test: Z'-Lyte FRET kinase assay (Invitrogen), Kdr; settings: read-out: IC50, activity toward kinase Kdr
T2 construct: purchased Invitrogen (assay run by Invitrogen)
T2 sequence (P35968 20-1356): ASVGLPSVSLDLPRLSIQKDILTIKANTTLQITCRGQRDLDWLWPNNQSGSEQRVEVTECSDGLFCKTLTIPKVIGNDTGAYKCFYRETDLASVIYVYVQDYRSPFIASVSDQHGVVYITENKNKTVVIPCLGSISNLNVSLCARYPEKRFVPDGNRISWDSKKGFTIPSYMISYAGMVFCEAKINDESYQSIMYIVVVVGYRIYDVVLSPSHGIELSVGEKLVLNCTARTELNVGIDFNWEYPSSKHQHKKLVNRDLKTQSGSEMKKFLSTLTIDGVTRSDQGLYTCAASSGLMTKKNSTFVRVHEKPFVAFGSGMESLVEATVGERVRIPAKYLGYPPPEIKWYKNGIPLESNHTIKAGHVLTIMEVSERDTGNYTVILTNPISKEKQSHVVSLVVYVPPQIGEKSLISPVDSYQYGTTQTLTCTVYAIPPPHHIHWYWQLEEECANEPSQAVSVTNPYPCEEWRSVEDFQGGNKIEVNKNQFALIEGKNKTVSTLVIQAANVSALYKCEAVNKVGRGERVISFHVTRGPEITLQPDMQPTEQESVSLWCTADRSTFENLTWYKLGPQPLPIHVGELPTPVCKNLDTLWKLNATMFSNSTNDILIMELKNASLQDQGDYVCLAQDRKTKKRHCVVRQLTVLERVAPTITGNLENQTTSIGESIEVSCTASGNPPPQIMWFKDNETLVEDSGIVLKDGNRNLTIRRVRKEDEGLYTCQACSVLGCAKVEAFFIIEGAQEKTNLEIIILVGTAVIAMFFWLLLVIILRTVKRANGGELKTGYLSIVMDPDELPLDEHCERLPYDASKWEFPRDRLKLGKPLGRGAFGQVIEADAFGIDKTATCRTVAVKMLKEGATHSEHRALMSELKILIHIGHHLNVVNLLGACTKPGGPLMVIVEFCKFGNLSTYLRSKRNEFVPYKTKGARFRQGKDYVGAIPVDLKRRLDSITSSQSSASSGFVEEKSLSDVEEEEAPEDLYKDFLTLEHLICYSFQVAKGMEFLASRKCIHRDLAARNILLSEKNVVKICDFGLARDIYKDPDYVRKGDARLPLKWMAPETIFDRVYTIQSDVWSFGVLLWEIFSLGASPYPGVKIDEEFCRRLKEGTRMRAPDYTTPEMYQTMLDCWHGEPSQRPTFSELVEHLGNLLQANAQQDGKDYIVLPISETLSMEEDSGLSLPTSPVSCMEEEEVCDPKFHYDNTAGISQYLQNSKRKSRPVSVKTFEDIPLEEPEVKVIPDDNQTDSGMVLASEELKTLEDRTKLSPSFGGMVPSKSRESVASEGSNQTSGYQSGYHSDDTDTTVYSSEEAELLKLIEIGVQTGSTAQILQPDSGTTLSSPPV

B-Raf = biological target: T3, B-Raf (Homo sapiens, UniProt P15056); test: AlphaScreen kinase assay, B-Raf; settings: read-out: IC50, activity toward kinase B-Raf
T3 construct: purchased Upstate Biotechnology
T3 sequence (P15056 whole entry): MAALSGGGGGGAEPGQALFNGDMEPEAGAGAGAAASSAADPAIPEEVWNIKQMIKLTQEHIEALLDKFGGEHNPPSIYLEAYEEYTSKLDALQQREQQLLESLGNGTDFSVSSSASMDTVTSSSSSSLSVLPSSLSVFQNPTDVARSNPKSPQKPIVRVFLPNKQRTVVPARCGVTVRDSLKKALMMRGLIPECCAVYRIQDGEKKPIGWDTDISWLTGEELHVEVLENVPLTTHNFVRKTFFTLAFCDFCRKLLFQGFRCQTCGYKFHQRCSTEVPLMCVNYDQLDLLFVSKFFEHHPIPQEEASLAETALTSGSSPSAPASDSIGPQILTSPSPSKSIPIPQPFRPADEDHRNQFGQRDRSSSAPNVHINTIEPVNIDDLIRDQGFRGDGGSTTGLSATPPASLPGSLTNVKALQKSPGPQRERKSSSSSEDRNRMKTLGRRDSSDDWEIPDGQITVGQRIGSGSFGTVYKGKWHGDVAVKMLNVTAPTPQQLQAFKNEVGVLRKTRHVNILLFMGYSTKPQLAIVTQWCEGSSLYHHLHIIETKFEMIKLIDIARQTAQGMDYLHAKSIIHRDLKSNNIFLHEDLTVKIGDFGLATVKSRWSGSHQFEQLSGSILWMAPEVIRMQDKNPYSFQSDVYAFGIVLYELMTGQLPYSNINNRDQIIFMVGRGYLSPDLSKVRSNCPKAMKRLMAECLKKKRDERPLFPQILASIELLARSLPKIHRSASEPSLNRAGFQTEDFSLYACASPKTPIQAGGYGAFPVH
Excerpt: AlphaScreen assay was used to screen additional kinases. The assay is similarly dependent on the phosphorylation of a peptide substrate. In this assay, an antibody that recognizes phosphorylated substrate is bound to an acceptor bead. The peptide substrate is attached to biotin, which binds to a donor head that contains streptavidin. Thus phosphorylated substrate is bound by antibody and streptavidin, bringing the donor and acceptor heads into close proximity when kinase is not inhibited. The donor produces singlet oxygen which results in emission from the acceptor when they are in close proximity. Conversely, when kinase is inhibited, the donor and acceptor beads are not associated and the emission from the acceptor is reduced.
AlphaScreen assays were done using compounds dissolved in DMSO to a concentration of 20 mM. The compounds were diluted accordingly to the desired final concentrations in each sample well, using 1:3 serial dilution for a total of 8 concentration points. Plates were prepared such that each kinase reaction is 20 μl in 1× kinase buffer, 5% DMSO and 10 μM ATP. After incubation of the kinase reaction for 1 hour at room temperature, 5 μl of donor beads in stop buffer (50 mM EDTA in 1× kinase buffer) was added, the sample was mixed and incubated for 20 minutes at room temperature before adding 5 μl of acceptor beads in stop buffer. The samples were incubated for 60 minutes at room temperature and the signal per well was read on AlphaQuest reader.

Fms = biological target: T4, Fms (Homo sapiens, UniProt P07333); test: AlphaScreen kinase assay, Fms; settings: read-out: IC50, activity toward kinase Fms
T4 construct: purchased Upstate Biotechnology
T4 sequence (P07333 20-972): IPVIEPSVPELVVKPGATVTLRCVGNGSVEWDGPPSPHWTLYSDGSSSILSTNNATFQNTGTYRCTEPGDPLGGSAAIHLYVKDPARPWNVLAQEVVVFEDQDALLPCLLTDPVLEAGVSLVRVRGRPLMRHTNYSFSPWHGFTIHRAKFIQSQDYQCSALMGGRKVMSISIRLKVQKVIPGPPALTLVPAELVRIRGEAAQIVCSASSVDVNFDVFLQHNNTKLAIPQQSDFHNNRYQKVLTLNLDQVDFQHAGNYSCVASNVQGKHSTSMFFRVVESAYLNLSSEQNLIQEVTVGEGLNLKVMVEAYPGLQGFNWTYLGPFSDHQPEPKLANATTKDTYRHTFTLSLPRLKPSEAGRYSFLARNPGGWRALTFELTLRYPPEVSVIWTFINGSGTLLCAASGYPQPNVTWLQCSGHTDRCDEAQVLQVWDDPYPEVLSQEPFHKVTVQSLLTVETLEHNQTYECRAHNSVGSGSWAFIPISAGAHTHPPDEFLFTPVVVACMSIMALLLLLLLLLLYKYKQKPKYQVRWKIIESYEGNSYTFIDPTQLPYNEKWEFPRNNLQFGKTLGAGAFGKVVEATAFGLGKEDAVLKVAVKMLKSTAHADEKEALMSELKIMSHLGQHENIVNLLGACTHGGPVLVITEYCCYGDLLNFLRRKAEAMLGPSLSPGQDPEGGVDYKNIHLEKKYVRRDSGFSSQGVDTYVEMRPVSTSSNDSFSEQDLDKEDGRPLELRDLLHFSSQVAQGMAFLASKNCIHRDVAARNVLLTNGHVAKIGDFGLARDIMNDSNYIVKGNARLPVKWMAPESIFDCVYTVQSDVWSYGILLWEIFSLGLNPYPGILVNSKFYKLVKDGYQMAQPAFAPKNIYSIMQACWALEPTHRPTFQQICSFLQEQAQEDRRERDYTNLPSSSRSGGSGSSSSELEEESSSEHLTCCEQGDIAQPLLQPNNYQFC

Ret = biological target: T5, Ret (Homo sapiens, UniProt P07949); test: AlphaScreen kinase assay, Ret; settings: read-out: IC50, activity toward kinase Ret
T5 construct: P1378.pET-SF BI-PTP RET H661-R1012 HIS; made in house
T5 sequence (P07949 with tags, fused parts or gaps): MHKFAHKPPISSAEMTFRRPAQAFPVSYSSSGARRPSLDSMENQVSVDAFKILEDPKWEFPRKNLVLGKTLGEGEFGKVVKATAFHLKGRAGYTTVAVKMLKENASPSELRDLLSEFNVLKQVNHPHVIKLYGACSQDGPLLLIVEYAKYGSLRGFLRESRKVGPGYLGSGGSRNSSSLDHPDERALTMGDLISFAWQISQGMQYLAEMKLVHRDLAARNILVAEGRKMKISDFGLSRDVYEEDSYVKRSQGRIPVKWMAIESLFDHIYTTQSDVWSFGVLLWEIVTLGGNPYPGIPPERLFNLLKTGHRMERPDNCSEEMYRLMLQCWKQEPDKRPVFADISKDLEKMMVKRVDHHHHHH

Btk = biological target: T6, Btk (Homo sapiens, UniProt Q06187); test: Z'-Lyte FRET kinase assay (Invitrogen), Btk; settings: read-out: IC50, activity toward kinase Btk
T6 construct: purchased Invitrogen (assay run by Invitrogen)
T6 sequence (Q06187 whole entry): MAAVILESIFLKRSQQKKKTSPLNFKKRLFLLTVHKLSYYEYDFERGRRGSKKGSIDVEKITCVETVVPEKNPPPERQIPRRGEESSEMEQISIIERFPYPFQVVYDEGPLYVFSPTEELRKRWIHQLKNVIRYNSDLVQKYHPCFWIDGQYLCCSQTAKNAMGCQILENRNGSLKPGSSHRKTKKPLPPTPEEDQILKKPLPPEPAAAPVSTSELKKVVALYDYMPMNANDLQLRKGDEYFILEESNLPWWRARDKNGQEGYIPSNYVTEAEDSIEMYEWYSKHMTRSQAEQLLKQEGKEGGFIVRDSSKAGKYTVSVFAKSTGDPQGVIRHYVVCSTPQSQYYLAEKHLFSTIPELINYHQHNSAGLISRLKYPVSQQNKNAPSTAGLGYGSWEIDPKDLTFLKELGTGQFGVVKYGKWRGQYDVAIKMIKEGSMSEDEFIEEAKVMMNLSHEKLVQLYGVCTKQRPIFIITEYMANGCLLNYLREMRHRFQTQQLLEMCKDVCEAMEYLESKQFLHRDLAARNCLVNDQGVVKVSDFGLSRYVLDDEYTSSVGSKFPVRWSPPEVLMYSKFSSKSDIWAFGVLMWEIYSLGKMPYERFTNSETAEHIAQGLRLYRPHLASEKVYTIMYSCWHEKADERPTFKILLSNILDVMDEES

Measured: IC50

T1 sequence (P11362 458-765 C488A/C584S): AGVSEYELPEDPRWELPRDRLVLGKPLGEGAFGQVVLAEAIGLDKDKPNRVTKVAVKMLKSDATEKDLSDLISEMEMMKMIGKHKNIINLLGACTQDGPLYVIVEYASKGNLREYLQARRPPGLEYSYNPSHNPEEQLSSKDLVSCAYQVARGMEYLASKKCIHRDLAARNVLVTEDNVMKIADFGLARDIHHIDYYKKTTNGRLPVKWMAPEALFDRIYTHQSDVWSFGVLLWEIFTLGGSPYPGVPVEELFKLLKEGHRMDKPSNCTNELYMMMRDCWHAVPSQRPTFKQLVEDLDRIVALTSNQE

O=C(c1cc(O)ccc1F)c1c[nH]c2ncccc12 [Compound P-0005]
≤ 10 µM: all assays above

Cc1c(O)cccc1C(=O)c1c[nH]c2ncc(-c3cccnc3)cc12 [Compound P-0006, (3-Hydroxy-2-methyl-phenyl)-(5-pyridin-3-yl-1H-pyrrolo[2,3b]pyridin-3-yl)-methanone]
≤ 10 µM: all assays above

Oc1ccc(F)c(C(O)c2c[nH]c3ncc(-c4cccnc4)cc23)c1F (centres unmarked) [Compound P-0009, 2,4-difluoro-3-[hydroxy-(5-pyridin-3-yl-1H-pyrrolo[2,3-b]pyridin-3-yl)-methyl]-phenol]
≤ 10 µM: all assays above

Cc1c(O)cccc1C(=O)c1c[nH]c2ncc(-c3ccccc3)cc12 [Compound P-0016, (3-Hydroxy-2-methyl-phenyl)-(5-phenyl-1H-pyrrolo[2,3b]pyridin-3-yl)-methanone]
≤ 10 µM: all assays above

O=C(c1cccc(O)c1)c1c[nH]c2ncc(Br)cc12 [Compound P-0019]
≤ 10 µM: all assays above

CS(=O)(=O)c1cccc(-c2cnc3[nH]cc(C(O)c4c(F)ccc(F)c4F)c3c2)c1 (centres unmarked) [Compound P-0020]
not listed: B-Raf
≤ 10 µM: all other assays above

O=C(c1ccc(O)cc1)c1c[nH]c2ncc(-c3cccs3)cc12 [Compound P-0024, (4-Hydroxy-phenyl)-(5-thiophen-2-yl-1H-pyrrolo[2,3-b]pyridin-3-yl)-methanone]
not listed: Fms
≤ 10 µM: all other assays above

O=C(c1cccc(O)c1)c1c[nH]c2ncc(Nc3ccccc3)cc12 [Compound P-0025]
≤ 10 µM: all assays above

O=C(c1cccc(O)c1F)c1c[nH]c2ncc(-c3cccnc3)cc12 [Compound P-0027, (2-Fluoro-3-hydroxy-phenyl)-(5-pyridin-3-yl-1H-pyrrolo[2,3-b]pyridin-3-yl)-methanone]
≤ 10 µM: all assays above

O=C(O)/C=C/c1cccc(-c2cnc3[nH]cc(C(=O)c4ccccc4F)c3c2)c1 [Compound P-0033]
not listed: B-Raf
≤ 10 µM: all other assays above

Cn1cc(C(F)(F)F)c(-c2ccc(S(=O)(=O)NCc3c[nH]c4ncccc34)s2)n1 [Compound P-0041]
not listed: Fms
≤ 10 µM: all other assays above

O=C(c1cc(O)ccc1F)c1c[nH]c2ncc(-c3ccccc3)cc12 [Compound P-0045]
≤ 10 µM: all assays above

Cc1ccc(F)cc1C(=O)c1c[nH]c2ncc(-c3ccc(C(N)=O)cc3)cc12 [Compound P-0050]
not listed: Fms
≤ 10 µM: all other assays above

Oc1cccc(Cc2c[nH]c3ncc(-c4cccs4)cc23)c1F [Compound P-0052, 2-Fluoro-3-(5-thiophen-2-yl-1H-pyrrolo[2,3-b]pyridin-3-ylmethyl)-phenol]
not listed: Fms
≤ 10 µM: all other assays above

Cc1c(O)cccc1C(=O)c1c[nH]c2ncc(Br)cc12 [Compound P-0055, (5-Bromo-1H-pyrrolo[2,3-b]pyridin-3-yl)-(3-hydroxy-2-methyl-phenyl)-methanone]
not listed: Fms
≤ 10 µM: all other assays above

CS(=O)(=O)Nc1cccc(-c2ccnc3[nH]cc(C(=O)c4cc(F)ccc4F)c23)c1 [Compound P-0060]
≤ 10 µM: Kdr | B-Raf | Ret | Btk

Cc1c(NS(C)(=O)=O)cccc1C(=O)c1c[nH]c2ncc(-c3ccccc3)cc12 [Compound P-0082, N-[2-Methyl-3-(5-phenyl-1H-pyrrolo[2,3-b]pyridine-3-carbonyl)-phenyl]-methanesulfonamide]
≤ 10 µM: all assays above

CCCS(=O)(=O)Nc1ccc(F)c(C(=O)c2c[nH]c3ncc(-c4cccnc4)cc23)c1F [Compound P-0088, Propane-1-sulfonic acid [2,4-difluoro-3-(5-pyridin-3-yl-1H-pyrrolo[2,3-b]pyridine-3-carbonyl)-phenyl]-amide]
≤ 10 µM: all assays above

COc1ccc(F)c(C(=O)c2c[nH]c3ncc(-c4cccnc4)cc23)c1 [Compound P-0090]
≤ 10 µM: all assays above

CS(=O)(=O)c1cccc(-c2cnc3[nH]cc(C(=O)c4c(F)ccc(F)c4F)c3c2)c1 [Compound P-0102, [5-(3-Methanesulfonyl-phenyl)-1H-pyrrolo[2,3-b]pyridin-3-yl]-(2,3,6-trifluoro-phenyl)-methanone]
≤ 10 µM: all assays above

O=C(c1ccccc1F)c1c[nH]c2ncc(-c3ccsc3)cc12 [Compound P-0134]
not listed: B-Raf
≤ 10 µM: all other assays above
